Tests used:
[1] = tested on: hGH with para-acetylphenylalanine substituted for tyrosine at position 35 (hGH-pAcF), oxime formation with mono hydroxylamine 30 K PEG; test: Screening of potential accelerants using 30 K PEG hGH-pAcF conjugation (SDS-PAGE); parameters: species or system human; conditions: 50 mM accelerant; hGH 8 mg/ml; hGH:PEG 1:2; 28° C.; 16 hours
Method: Human growth hormone (hGH) with para-acetylphenylalanine substituted for tyrosine at position 35 was used to screen a panel of 20 compounds (FIG. 5). hGH was buffer exchanged into hGH reaction buffer (20 mM NaOAc, 20 mg/ml glycine, 5 mg/ml Mannitol, 1 mM EDTA, pH 4.0) using a PD 10 column, and concentrated to 10 mg/ml using a Centrocon (10 K MWCO) concentrator. hGH (10 μl) was mixed with 3.6 μl mono hydroxylamine 30 K PEG (2.5 mM), 3 μl of potential accelerant solution (200 mM in hGH reaction buffer) and buffer to give a final volume of 30 μl. The molar ratio of hGH:PEG was 1:2. The reaction mixtures were incubated at 28° C. for 16 hours and 36 hours and analyzed by SDS-PAGE (FIG. 6). The last lane in each gel was a control reaction (no accelerant). Compounds 6, 7, 8, 10, and 20 were accelerants. Two compounds from the panel, compounds 7 and 20 (acetic hydrazide) (pictured in FIG. 5), were accelerants and were further evaluated under similar reaction conditions with a higher hGH protein concentration (8 mg/ml). Lane 1 was a reaction mixture with a hGH:PEG molar ratio of 1:2 and 50 mM of accelerant compound 7. Lane 2 was a reaction mixture with a hGH:PEG molar ratio of 1:2 and 50 mM of accelerant compound 20. Lane 3 was a reaction mixture with a hGH:PEG molar ratio of 1:2 with no accelerant. Lane 4 was a reaction mixture with a hGH:PEG molar ratio of 1:5 with no accelerant.

scFv 108 259-pAcF [2] = test: One step dimerization of scFv-pAcF with homobifunctional 2 K hydroxylamine PEG linker (SDS-PAGE); conditions: 47 mM acetic hydrazide; 147 μM homobifunctional 2 K PEG linker; pH 4.0; 28° C.; without accelerant very little dimer after 20 hours
Method: Single chain Fv (scFv) 108 protein with para-acetylphenylalanine substituted at position 259 (scFv 108 259-pAcF) was used the following conjugation experiment. scFv 108 259-pAcF in storage buffer was buffer exchanged into reaction buffer (150 mM NaCl, 20 mM NaOAc, 5 mM EDTA, pH 4.0) using a PD 10 column. The protein solution was concentrated to 0.5 mM, mixed with hydroxylamine homobifunctional 2 K PEG linker 2.5 mM stock solution and supplemented with acetic hydrazide as accelerant. The final reaction mixture consisted of 147 μM homobifunctional 2 K PEG linker, the corresponding concentration of pAcF-substituted scFv and 47 mM acetic hydrazide. The reaction mixtures were incubated at 28° C. and analyzed at different time points (6 hours, 20 hours, 44 hours) by SDS-PAGE (FIG. 2).
To make the one-step reaction more efficient and more practical with the homobifunctional 2 K PEG linker, accelerants were used to facilitate the dimerization process. Without accelerant, very little dimer product could be detected after 20 hours by SDS-PAGE. Lane 4 of the 6 hour, 20 hour, and 44 hour gels show reaction mixtures with a scFv:PEG linker molar ratio of 2.0:1 without the accelerant acetic hydrazide. […] Lane 1 of the 6 hour, 20 hour, and 44 hour gels show reaction mixtures with a scFv:PEG linker molar ratio of 1.6:1 with acetic hydrazide. […]

scFv 108 259-pAcF [3] = test: Mono hydroxylamine 30 K PEG and scFv-pAcF conjugation (SDS-PAGE); conditions: 28° C.
Method: scFv 108 259-pAcF 0.5 mM stock solution in reaction buffer mentioned above (10 μl) is mixed with various amounts of mono hydroxylamine 30 K PEG 2.5 mM stock solution, 2.2 μl of 200 mM acetic hydrazide stock solution and reaction buffer. The reaction mixtures with a final reaction volume of 22 μl have different molar ratios of scFv:PEG (1:3 or 1:5). The accelerating effect of acetic hydrazide on conjugation of mono hydroxylamine 30 K PEG and scFv was evaluated at protein and PEG molar ratio of 1:3 and 1:5 with and without accelerant. The reaction mixtures were incubated at 28° C. and were analyzed at different time points (20 hours, 44 hours) by SDS-PAGE (FIG. 3). Lanes 1, 2, and 3 show 100%, 20%, and 10% of the starting scFv-pAcF, respectively. Lane 4 of the 20 hour and 44 hour gels show reaction mixtures with a scFv:PEG molar ratio of 1:3 with 20 mM acetic hydrazide. Lane 5 of the 20 hour and 44 hour gels show reaction mixtures with a scFv:PEG molar ratio of 1:3 without accelerant. Lane 6 of the 20 hour and 44 hour gels show reaction mixtures with a scFv:PEG molar ratio of 1:5 with 20 mM acetic hydrazide. […]
Similarly, the relative conjugation efficiency of different concentrations of the accelerant acetic hydrazide (5 mM, 20 mM, 80 mM) with a scFv:30 K PEG mono hydroxylamine molar ratio of 1:2 were evaluated (FIG. 4). […]

wild type hGH = wild type hGH (Homo sapiens, UniProt P01241); test: LCMS analysis of hGH after incubation with accelerant; conditions: wild type hGH 5.8 mg/ml; up to 200 mM accelerant; 28° C.; 48 hour
wild type hGH, sequence (P01241 with tags, fused parts or gaps): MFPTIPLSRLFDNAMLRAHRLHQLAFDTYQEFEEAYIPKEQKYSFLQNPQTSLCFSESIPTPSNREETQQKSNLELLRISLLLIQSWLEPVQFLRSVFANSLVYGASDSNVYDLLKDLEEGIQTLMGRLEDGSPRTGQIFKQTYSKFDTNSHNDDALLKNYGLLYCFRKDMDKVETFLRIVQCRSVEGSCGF
Method: In hGH reaction buffer, wild type hGH (5.8 mg/ml) was incubated with various concentrations of the accelerant acetic hydrazide (200 mM, 100 mM, 50 mM, 25 mM, 12.5 mM, 6.25 mM and 0 mM) at 28° C. for 48 hours. The accelerant was removed through dialysis (10 k MWCO). The resulting protein solutions were analyzed by LCMS (FIG. 8).]
The measured molecular weights of hGH in all the conditions are same and match theoretical value 22256.

CC(=O)NN [Compound 20, acetic hydrazide]
acceleration of hGH-pAcF / 30 K PEG conjugation at higher protein concentration [1]: shown to catalyze the reaction
dimer product formation (scFv 108 259-pAcF [2]): the dimer product appeared after 6 hours
relative conjugation efficiency at different accelerant concentrations (scFv 108 259-pAcF [3]; 5 mM, 20 mM, 80 mM acetic hydrazide, scFv:PEG 1:2): the higher concentration of accelerant, the faster the conjugation
accelerating effect on conjugation of mono hydroxylamine 30 K PEG and scFv (scFv 108 259-pAcF [3]; 20 mM acetic hydrazide, scFv:PEG 1:3 and 1:5, with and without accelerant, 20 hours, 44 hours): accelerates the conjugation reaction
covalent modification of protein by accelerant (LCMS) (wild type hGH): no covalent modification could be detected

From patent US20080139794A1, “Accelerants for the modification of non-natural amino acids and non-natural amino acid polypeptides” (Ambrx, Inc., priority 2005, published 2008)
